What all share (assay type): cell-based
The subject of one assay is BHK-21 cells. Put plainly: Anti-fibrosis activity test: inhibition of BHK-21 cell proliferation (CCK-8). The conditions noted are these: Mesocricetus auratus, BHK-21, 48 h, CCK-8, 48 hours after administration. As to the method: (§1) BHK-21 cells in exponential growth phase were selected. After the fusion growth reached 85-95%, normal passage method was utilized to digest and collect the cells, followed by cell counting and adjusting the cell density to 2×10^4 cells/mL. The cells were seeded into 96-well plates, 100 μL/well, and were incubated under the condition of 5% CO2 at 37° C.
(§2) The supernatant was removed after the cells had adhered to the wall for 24 hours. The culture solution containing the prepared compounds at different concentrations were added to the wells, 100 μL/well, each concentration in triplicate. The cells were subcultured for 48 hours after administration. Commercially available pirfenidone was employed as the positive control.
(§3) 10 μL of CCK-8 solution ( 1/10 of the volume of the culture solution) was added to each well 48 hours after the administration, and incubated for 2 hours. The absorbance (A) of each well was determined by a microplate reader at 450 nm wavelength. The inhibition rate against cell proliferation for each compound was calculated based on A, wherein inhibition rate against cell proliferation (inhibition ratio, IR)=(1−value of experimental group (Ai)/value of blank control group (Ao))×100% and the IC50 value of each compound was calculated by the data processing software.

Assay [1] relates to human embryonic lung fibroblast IMR-90. As to the kind of experiment: Anti-fibrosis activity test: inhibition of proliferation of human embryonic lung fibroblast IMR-90 (CCK-8). The conditions noted are these: human embryonic lung fibroblast IMR-90, CCK-8, 48 hours. The method, then:
as §1, §2, §3
(§4) Using the same protocol for the cell experiments, the inhibitory activity of the test compounds against the proliferation of human lung fibroblasts HFL1, human hepatic stellate cells LX-2, human fibrosarcoma cells HT-1080, human dermal fibroblasts CCC-ESF-1, human embryonic lung fibroblast IMR-90, cardiac fibroblast RAT-iCell-C002 was assayed.

Assay [2] relates to human fibrosarcoma cells HT-1080. As to the kind of experiment: Anti-fibrosis activity test: inhibition of proliferation of human fibrosarcoma cells HT-1080 (CCK-8). Conditions: Homo sapiens, HT-1080, 48 h, human fibrosarcoma cells HT-1080, CCK-8, 48 hours. The method, then: as §1, §2, §3, §4
For assay [3], the system named is human lung fibroblasts HFL1. As to the kind of experiment: Anti-fibrosis activity test: inhibition of proliferation of human lung fibroblasts HFL1 (CCK-8). Conditions: Homo sapiens, HFL1, 48 h, human lung fibroblasts HFL1, CCK-8, 48 hours. As to the method:
as §1, §2, §3, §4

Assay [4] deals with human dermal fibroblasts CCC-ESF-1. Put plainly: Anti-fibrosis activity test: inhibition of proliferation of human dermal fibroblasts CCC-ESF-1 (CCK-8). The conditions noted are these: Fibroblast; human dermal fibroblasts CCC-ESF-1, CCK-8, 48 hours. The method, then:
as §1, §2, §3, §4

Assay [5] relates to human hepatic stellate cells LX-2. As to the kind of experiment: Anti-fibrosis activity test: inhibition of proliferation of human hepatic stellate cells LX-2 (CCK-8). Conditions: Homo sapiens, 48 h, human hepatic stellate cells LX-2, CCK-8, 48 hours. The method, then:
as §1, §2, §3, §4

The test system of assay [6] is cardiac fibroblast RAT-iCell-C002. Put plainly: Anti-fibrosis activity test: inhibition of proliferation of cardiac fibroblast RAT-iCell-C002 (CCK-8). The conditions noted are these: Cardiac fibroblast, 48 h, cardiac fibroblast RAT-iCell-C002, CCK-8, 48 hours. As to the method:
as §1, §2, §3, §4

The text below walks through data of patent US11040028B2, “Penicinotam derivative, preparation method and use thereof” (OCEAN UNIVERSITY OF CHINA, priority 2017, dated 2021).

The term IC50 denotes the point on the concentration scale where inhibition reaches its midpoint. Read a high IC50 as weaker potency. For the compound `O=C1c2c(nc3cc(N4CCNCC4)c(F)cc3c2OCc2ccc(Br)cc2)-c2cccn21` [Compound 633b, 9-((4-bromobenzyl)oxy)-7-fluoro-6-(piperazin-1-yl)-10H-pyrrolizino[1,2-b]quinolin-10-one], the IC50 (in the assay with BHK-21 cells; in assay [1]; in assay [2]; in assay [3]; in assay [4]; in assay [5]) was 0.05 to 5 mM in each case. For the same compound, the concentration for half-maximal inhibition (IC50) in assay [6] was in the range of 0.05 to 5 mM.
For `O=C1c2c(n(Cc3ccc(F)cc3)c3cc(N4CCNCC4)c(F)cc3c2=O)-c2cccn21` [Compound 634a, 7-Fluoro-4-(4-fluorobenzyl)-6-(piperazin-1-yl)-9H-pyrrolizino[1,2-b]quinoline-9,10(4H)-dione], the IC50 (with BHK-21 cells; in assay [1]; in assay [2]; in assay [3]; in assay [4]; in assay [5]) was 0.05 to 5 mM throughout. In assay [6], this compound returned a half-inhibitory concentration (IC50) of 0.05 to 5 mM.
As to `O=C1c2c(nc3cc(N4CCNCC4)c(F)cc3c2OCc2ccc(F)cc2)-c2cccn21` [Compound 634b, 7-fluoro-9-((4-fluorobenzyl)oxy)-6-(piperazin-1-yl)-10H-pyrrolizino[1,2-b]quinolin-10-one], the half-maximal inhibitory concentration (IC50) (in the assay with BHK-21 cells; in assay [1]; in assay [2]; in assay [3]; in assay [4]; in assay [5]) was 0.05 to 5 mM in each case. Besides, the half-maximal inhibitory concentration (IC50) in assay [6] is 0.05 to 5 mM.
As for `N#Cc1ccc(Cn2c3c(c(=O)c4cc(F)c(N5CCNCC5)cc42)C(=O)n2cccc2-3)cc1` [Compound 635a, 4-((7-Fluoro-9,10-dioxo-6-(piperazin-1-yl)-9H-pyrrolizino[1,2-b]quinolin-4(10H)-yl)methyl)benzonitrile], the IC50 (with BHK-21 cells; in assay [1]; in assay [2]; in assay [3]; in assay [4]; in assay [5]) was 0.05 to 5 mM each time. In assay [6], this compound gave an IC50 of 0.05 to 5 mM.
Consider `N#Cc1ccc(COc2c3c(nc4cc(N5CCNCC5)c(F)cc24)-c2cccn2C3=O)cc1` [Compound 635b, 4-(((7-fluoro-10-oxo-6-(piperazin-1-yl)-10H-pyrrolizino[1,2-b]quinolin-9-yl)oxy)methyl)benzonitrile], for which the IC50 (in the assay with BHK-21 cells; in assay [1]; in assay [2]; in assay [3]; in assay [4]; in assay [5]) was 0.05 to 5 mM each time. The compound also came in with an IC50 in assay [6] of 0.05 to 5 mM.
Turning to `O=C1c2c(n(Cc3ccc(C(F)(F)F)cc3)c3cc(N4CCNCC4)c(F)cc3c2=O)-c2cccn21` [Compound 636a, 7-Fluoro-6-(piperazin-1-yl)-4-(4-(trifluoromethyl)benzyl)-9H-pyrrolizino[1,2-b]quinoline-9,10(4H)-dione], the 50% inhibitory concentration (IC50) was 0.05 to 5 mM in the assay with BHK-21 cells; 0.05 to 5 mM in assay [1]; 0.05 to 5 mM in assay [2]; 0.05 to 5 mM in assay [3]; less than 0.05 mM in assay [4]; 0.05 to 5 mM in assay [5]. The half-inhibitory concentration (IC50) in assay [6] was in the range of 0.05 to 5 mM.
With `O=C1c2c(nc3cc(N4CCNCC4)c(F)cc3c2OCc2ccc(C(F)(F)F)cc2)-c2cccn21` [Compound 636b, 7-fluoro-6-(piperazin-1-yl)-9-((4-(trifluoromethyl)benzyl)oxy)-10H-pyrrolizino[1,2-b]quinolin-10-one], the half-maximal inhibitory concentration (IC50) (in the assay on BHK-21 cells; in assay [1]; in assay [2]; in assay [3]; in assay [4]; in assay [5]) was 0.05 to 5 mM in each case. In assay [6], this compound had an IC50 of 0.05 to 5 mM.
In the case of `O=C1c2c(n(Cc3ccc(-c4ccccc4)cc3)c3cc(N4CCNCC4)c(F)cc3c2=O)-c2cccn21` [Compound 637a, 4-([1,1′-Biphenyl]-4-ylmethyl)-7-fluoro-6-(piperazin-1-yl)-9H-pyrrolizino[1,2-b]quinoline-9,10(4H)-dione], the IC50 in the assay on BHK-21 cells is less than 0.05 mM; in assay [1], 0.05 to 5 mM; in assay [2], 5 to 20 mM; in assay [3], 0.05 to 5 mM; in assay [4] it was 0.05 to 5 mM; in assay [5], 0.05 to 5 mM. In addition, the IC50 in assay [6] was 0.05 to 5 mM.
On to `O=C1c2c(nc3cc(N4CCNCC4)c(F)cc3c2OCc2ccc(-c3ccccc3)cc2)-c2cccn21` [Compound 637b, 9-([1,1′-biphenyl]-4-ylmethoxy)-7-fluoro-6-(piperazin-1-yl)-10H-pyrrolizino[1,2-b]quinolin-10-one], for which the IC50 in the assay with BHK-21 cells lay in the range of 0.05 to 5 mM; in assay [1], 0.05 to 5 mM; in assay [2], 5 to 20 mM; in assay [3], 0.05 to 5 mM; in assay [4], 0.05 to 5 mM; in assay [5], 0.05 to 5 mM. The concentration for half-maximal inhibition (IC50) in assay [6] lay in the range of 0.05 to 5 mM.
As to `N#Cc1ccccc1-c1ccc(Cn2c3c(c(=O)c4cc(F)c(N5CCNCC5)cc42)C(=O)n2cccc2-3)cc1` [Compound 638a, 4′-((7-Fluoro-9,10-dioxo-6-(piperazin-1-yl)-9H-pyrrolizino[1,2-b]quinolin-4(10H)-yl)methyl)-[1,1′-biphenyl]-2-carbonitrile], the 50% inhibitory concentration (IC50) (in the assay on BHK-21 cells; in assay [1]; in assay [2]; in assay [3]; in assay [4]; in assay [5]) was 0.05 to 5 mM in each case. In assay [6], this compound had an IC50 of 0.05 to 5 mM.
Take `N#Cc1ccccc1-c1ccc(COc2c3c(nc4cc(N5CCNCC5)c(F)cc24)-c2cccn2C3=O)cc1` [Compound 638b, 4′-(((7-fluoro-10-oxo-6-(piperazin-1-yl)-10H-pyrrolizino[1,2-b]quinolin-9-yl)oxy)methyl)-[1,1′-biphenyl]-2-carbonitrile]: the IC50 (in the assay on BHK-21 cells; in assay [1]; in assay [2]; in assay [3]; in assay [4]; in assay [5]) was 0.05 to 5 mM each time. In assay [6], this compound came in with a 50% inhibitory concentration (IC50) of 0.05 to 5 mM.
In the case of `O=C1c2c(nc3cc(N4CCNCC4)c(F)cc3c2OCc2cc(C(F)(F)F)cc(C(F)(F)F)c2)-c2cccn21` [Compound 639b, 9-((3,5-bis(trifluoromethyl)benzyl)oxy)-7-fluoro-6-(piperazin-1-yl)-10H-pyrrolizino[1,2-b]quinolin-10-one], the IC50 (in the assay on BHK-21 cells; in assay [1]; in assay [2]; in assay [3]; in assay [4]; in assay [5]) was 0.05 to 5 mM throughout. The 50% inhibitory concentration (IC50) in assay [6] was 0.05 to 5 mM.
Regarding `N#Cc1cc2c(=O)c3c(n(Cc4ccc(Cl)cc4)c2cc1N1CCNCC1)-c1cccn1C3=O` [Compound 640a, 4-(4-Chlorobenzyl)-9,10-dioxo-6-(piperazin-1-yl)-4,10-dihydro-9H-pyrrolizino[1,2-b]quinoline-7-carbonitrile], the IC50 (with BHK-21 cells; in assay [1]; in assay [2]; in assay [3]; in assay [4]; in assay [5]) was 0.05 to 5 mM in each case. Moreover, in assay [6], the IC50 lay within 0.05 to 5 mM.
In the case of `N#Cc1cc2c(OCc3ccc(Cl)cc3)c3c(nc2cc1N1CCNCC1)-c1cccn1C3=O` [Compound 640b, 9-((4-chlorobenzyl)oxy)-10-oxo-6-(piperazin-1-yl)-10H-pyrrolizino[1,2-b]quinoline-7-carbonitrile], the half-inhibitory concentration (IC50) (with BHK-21 cells; in assay [1]; in assay [2]; in assay [3]; in assay [4]; in assay [5]) was 0.05 to 5 mM in each case. The compound further yielded an IC50 in assay [6] of 0.05 to 5 mM.
Turning to `N#Cc1ccc(Cn2c3c(c(=O)c4cc(C#N)c(N5CCNCC5)cc42)C(=O)n2cccc2-3)cc1` [Compound 641a, 4-(4-Cyanobenzyl)-9,10-dioxo-6-(piperazin-1-yl)-4,10-dihydro-9H-pyrrolizino[1,2-b]quinoline-7-carbonitrile], the IC50 (with BHK-21 cells; in assay [1]; in assay [2]; in assay [3]; in assay [4]; in assay [5]) was 0.05 to 5 mM throughout. The IC50 in assay [6] fell in the range of 0.05 to 5 mM.
